Where two headings read alike, the source gives them in different places.
Columns and labels:
WT STING [1] = molecular target: T1, WT STING (Homo sapiens, UniProt Q86WV6, H232R); test: Differential scanning fluorimetry (DSF) with WT STING; type: binding; design: 8xHis (N, cleaved yes); SUMO (N, cleaved yes); made in house; host or cells: E. coli Rosetta-gami B (DE3); conditions: thermal shift vs apoprotein; 150 μM CDN; truncated human WT STING 0.1 mg/ml
In short: (§1)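 […] STING proteins, alone or with CDNs, in triplicate, thermally denatured on a real-time PCR cycler. Denaturing temperatures taken from first-derivative curves; shift = mean Tm of STING–CDN complex minus mean Tm of apoprotein.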
Target sequence in this assay (Q86WV6 140-343 H232R): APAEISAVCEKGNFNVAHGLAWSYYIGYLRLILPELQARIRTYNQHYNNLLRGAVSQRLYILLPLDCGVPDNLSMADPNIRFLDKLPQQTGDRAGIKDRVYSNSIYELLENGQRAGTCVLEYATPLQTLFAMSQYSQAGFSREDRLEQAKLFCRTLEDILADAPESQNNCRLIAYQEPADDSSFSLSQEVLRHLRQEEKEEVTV

WT STING [2] = molecular target: T1, WT STING; test: 293T WT STING standard reporter assay; type: cell-based; design: host or cells: 293T (ATCC CRL-3216), stably transfected, with 4xISRE firefly luciferase reporter; conditions: 293T wtSTING-FL cells, ISRE firefly luciferase; no digitonin; 7 hours with compounds; 8-point curve
Excerpt: Two complementary oligonucleotides of the sequence […] […] […] […] […] The oligonucleotides were mixed in equal molar amounts, hybridized, and cleaved by restriction endonucleases HindIII (cat. #. R0104S, NEB, Ipswich, USA) and BglII (cat. #R0144S, NEB, Ipswich, USA). Ultimately, they were ligated into plasmid pGL4.27 (cat. #E6651, Promega, Madison, USA) linearized with the same enzymes. As result the sequence with four ISRE sites was placed upstream of the minimum promoter of firefly luciferase reporter gene.
After 5 minutes incubation at room temperature (RT), 250 μL of the mixture was added dropwise to the cells in one well. Cells were incubated 36 hours at 37° C. with 5% CO2, and then detached with 0.05% Trypsin and 0.22 g/L EDTA (both cat. #L0941, Biowest, Riverside, USA).
Transfected cells were seeded onto poly-D-lysine coated six well plates at density 50,000 cells per 1 cm^2 in DMEM medium with high glucose containing 10% heat inactivated FBS, 30 μg/mL blasticidin (cat. #ant-b1-05, InvivoGen, San Diego, USA), 0.06 mg/ml Penicillin G and 0.1 mg/ml Streptomycin Sulfate (both cat. #. L0018, Biowest, Riverside, USA). The medium was replenished every 3-4 days until visible colonies of cells resistant to blasticidin were formed.
Blasticidin resistant cells stably expressing WT STING were further transfected with […] plasmid following the same procedure as described above. […] Homogeneous culture of stably double transfected cells was prepared by limiting dilution of cells in 96 well plates and wells with cells were selected that originated from a single cell.
The medium was removed next day and three-fold serial dilutions of compounds in 100 μl medium were added to the cells. The plates with cells were incubated for 7 hours at 37° C. with 5% CO2. After 50 μl of the medium was removed, 30 μl of ONE-Glo™ Luciferase Assay System reagent (cat. #E6120, Promega, Madison, USA) was added to each well and luminescence was read on Synergy H1 (Biotek, Winooski, USA).
Target sequence in this assay (Q86WV6 whole entry H232R, the tested form may be a part): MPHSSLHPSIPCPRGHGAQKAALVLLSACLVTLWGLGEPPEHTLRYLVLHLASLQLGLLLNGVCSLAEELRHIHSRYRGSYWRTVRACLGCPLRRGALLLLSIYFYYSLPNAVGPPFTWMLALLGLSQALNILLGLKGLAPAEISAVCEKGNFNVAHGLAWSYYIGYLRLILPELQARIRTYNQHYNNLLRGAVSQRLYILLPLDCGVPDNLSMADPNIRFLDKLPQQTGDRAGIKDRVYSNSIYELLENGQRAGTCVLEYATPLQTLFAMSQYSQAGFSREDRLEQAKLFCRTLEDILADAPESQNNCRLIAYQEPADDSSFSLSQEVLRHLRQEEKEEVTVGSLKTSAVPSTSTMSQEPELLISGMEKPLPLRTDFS

AQ STING (G230A-R293Q) = molecular target: T2, AQ STING (G230A-R293Q) (Homo sapiens, UniProt Q86WV6, G230A/H232R/R293Q); test: Differential scanning fluorimetry (DSF) with AQ STING; type: binding; conditions: thermal shift vs apoprotein; 150 μM CDN; truncated human AQ STING 0.1 mg/ml
T2 construct: 8xHis (N, cleaved yes); SUMO (N, cleaved yes); made in house; host or cells: E. coli Rosetta-gami B (DE3)
T2 sequence (Q86WV6 140-343 G230A/H232R/R293Q): as the sequence (Q86WV6 140-343 H232R) above, with G91A, R154Q counted along it
In short: as §1

WT STING [3] = molecular target: T1, WT STING; test: Digitonin assay using 293T wtSTING-FL reporter cells; type: cell-based; design: host or cells: 293T (ATCC CRL-3216), stably transfected, with 4xISRE firefly luciferase reporter; conditions: 293T wtSTING-FL cells, ISRE firefly luciferase; compounds in Digitonin buffer 30 minutes, then 5 hours; 8-point curve
Target sequence in this assay (Q86WV6 whole entry H232R, the tested form may be a part): as the sequence (Q86WV6 whole entry H232R, the tested form may be a part) above

[4] = test system: peripheral blood mononuclear cells (PBMC); test: Peripheral blood mononuclear cell (PBMC) assay; type: cell-based; conditions: PBMC, 1 h with compounds, washed, 15 hour incubation, average of one to four donors
Description: Selected compounds were tested in an in vitro peripheral blood mononuclear cell (PBMC) assay. […] Serially diluted tested compounds were added to wells in 50 μl of cultivation medium and cell were incubated with compounds for 1 h at 37° C. with 5% CO2. Plates with cells were then spun 500 g for 5 minutes and medium was removed. Cells were washed twice with the cell culture medium by the use of centrifugation and gently resuspended in 100 μl medium without compounds. After 15 hour incubation at 37° C. with 5% CO2, the cell culture medium was collected and the levels of interferon-alpha (INF-α), interferon-gamma (INF-γ) and tumor necrosis factor-alpha (TNF-α) were determined with ProcartaPlex Assays (ThermoFisher, Waltham, USA) and MAGPIX System (Merck KGaA, Darmstadt, Germany). […] Values reported are an average of runs from one to four donors.

[5] = interferon-alpha level, read-out: PBMC EC50 (μM) IFN-α
[6] = interferon-gamma level, read-out: PBMC EC50 (μM) IFN-γ
[7] = tumor necrosis factor-alpha level, read-out: PBMC EC50 (μM) TNF-α

Compound | ΔTm at 150 µM (WT STING [1]) [°C] | EC50 (WT STING [2]) [nM] | ΔTm at 150 µM (AQ STING (G230A-R293Q)) [°C] | EC50 (WT STING [3]) [nM] | DSF ΔTm (° C.) WT STING (WT STING [1]) [°C] | DSF ΔTm (° C.) AQ STING (AQ STING (G230A-R293Q)) [°C] | EC50 [4, 5] [µM] | EC50 [4, 6] [µM] | EC50 [4, 7] [µM]
Nc1ncnc2c1ncn2[C@@H]1C[C@@H]2COP(=O)(S)OC3C(F)[C@H](n4cnc5c(N)ncnc54)O[C@@H]3COP(=O)(S)OC2C1F (single isomer, unassigned) [Compound 102a] | 6.7 | 1800 | 11.2 | 110 |  |  |  |  | 
Nc1ncnc2c1ncn2[C@@H]1C[C@@H]2COP(=O)(S)OC3C(F)[C@H](n4cnc5c(N)ncnc54)O[C@@H]3COP(=O)(S)OC2C1F (single isomer, unassigned) [Compound 102b] |  | 700 |  | 5 | 11.9 | 16.9 |  |  | 
Nc1ncnc2c1ncn2[C@@H]1C[C@@H]2COP(=O)(S)OC3C(F)[C@H](n4cnc5c(N)ncnc54)O[C@@H]3COP(=O)(S)OC2C1F (single isomer, unassigned) [Compound 102d] |  | 400 |  | 10 |  |  |  |  | 
Nc1ncnc2c1ncn2[C@@H]1C[C@@H]2COP(=O)(S)O[C@@H]3[C@@H](COP(=O)(S)O[C@H]2[C@H]1F)C[C@@H](n1cnc2c(N)ncnc21)[C@@H]3F (single isomer, unassigned) [Compound 128b] |  | 400 |  | 10 | 12.2 | 17.5 | 27 | 6.5 | 19
Nc1nc2c(ncn2[C@@H]2C[C@@H]3COP(=O)(S)O[C@H]4[C@@H](F)[C@H](n5cnc6c(N)ncnc65)O[C@@H]4COP(=O)(S)O[C@H]3C2)c(=O)[nH]1 (single isomer, unassigned) [Compound 129d] |  | 300 |  | 7 | 13.7 | 20.8 | 27 | 23 | 25
Nc1ncnc2c1ncn2[C@@H]1C[C@@H]2COP(=O)(O)O[C@H]3[C@@H](F)[C@H](n4cnc5c(N)ncnc54)O[C@@H]3COP(=O)(S)O[C@H]2[C@H]1F (single isomer, unassigned) [Compound 130a] | 14.7 | 1000 | 20.7 | 10 |  |  |  |  | 
Nc1ncnc2c1ncn2[C@@H]1C[C@@H]2COP(=O)(O)O[C@H]3[C@@H](F)[C@H](n4cnc5c(N)ncnc54)O[C@@H]3COP(=O)(S)O[C@H]2[C@H]1F (single isomer, unassigned) [Compound 130b] |  | 1200 |  | 10 | 13.6 | 20.3 |  |  | 
Nc1ncnc2c1ncn2[C@@H]1C[C@@H]2COP(=O)(S)OC3C[C@H](n4cnc5c(N)ncnc54)O[C@@H]3COP(=O)(S)OC2C1F (single isomer, unassigned) [Compound 142b] |  | 500 |  | 20 |  |  |  |  | 
Nc1nc2c(ncn2[C@@H]2O[C@@H]3COP(=O)(O)O[C@@H]4[C@H](O)[C@@H](COP(=O)(O)O[C@@H]2[C@@H]3O)O[C@H]4n2cnc3c(N)ncnc32)c(=O)[nH]1 [2′2′-cGAMP, reference compound] |  | 10200 |  | 30 | 11.5 | 19.4 |  |  | 
Nc1ncnc2c1ncn2[C@H]1CC2OP(=O)(O)OC[C@H]3O[C@@H](n4cnc5c(N)ncnc54)C(F)C3OP(=O)(O)OC[C@H]2C1 (stereo partly drawn) [Compound 119, (2R, 3R, 3aR, 7aR, 9R, 10aS, 14aR)-2,9-bis(6-amino-9H-purin-9-yl)-3-fluoro-5,12-dihydroxydecahydro-2H-cyclopeanta[d]furo[3,2-j][1,3,7,9]tetraoxa[2,8]diphosphacyclododecine 5,12-dioxide] | 5.7 | 11700 | 16.6 | 50 |  |  | 265 | 169 | 146
Nc1ncnc2c1ncn2[C@@H]1C[C@@H]2COP(=O)(O)OC3C(F)[C@H](n4cnc5c(N)ncnc54)O[C@@H]3COP(=O)(O)OC2C1F (stereo partly drawn) [Compound 120, (2R,3R,3aR,7aR,9R,10S,10aR,14aR)-2,9-bis(6-amino-9H-purin-9-yl)-3,10-difluoro-5,12-dihydroxydecahydro-2H-cyclopenta[d]furo[3,2-j][1,3,7,9]tetraoxa[2,8]diphosphacyclododecine 5,12-dioxide] | 10.3 | 1900 | 17 | 10 |  |  | 64 | 36.6 | 72.6
Nc1ncnc2c1ncn2[C@@H]1C[C@@H]2COP(=O)(O)OC3C(F)[C@H](n4cnc5c(N)ncnc54)C[C@@H]3COP(=O)(O)OC2C1F (stereo partly drawn) [Compound 121, (2R,3S,3aR,7aR,9R,10S,10aR,14aR)-2,9-bis(6-amino-9H-purin-9-yl)-3,10-difluoro-5,12-dihydroxydodecahydrodicyclopenta[d,j][1,3,7,9]tetraoxa[2,8]-diphosphacyclododecine 5,12-dioxide] | 7.6 | 2600 | 13.9 | 50 |  |  | 254 | 200 | 254
Nc1nc2c(ncn2[C@@H]2O[C@@H]3COP(=O)(S)OC4C(F)[C@H](n5cnc6c(N)ncnc65)C[C@@H]4COP(=O)(S)OC3C2F)c(=O)[nH]1 (stereo partly drawn) [Compound 132b, (1R,6R,8R,9R,10R,15R,17R,18S)-8-(2-amino-6-oxo-6,9-dihydro-1H-purin-9-yl)-17-(6-amino-9H-purin-9-yl)-9,18-difluoro-3,12-disulfanyl-2,4,7,11,13-pentaoxa-3λ^5,12λ^5-diphosphatricyclo[13.3.0.0^6,10]octadecane-3,12-dione] | 18.6 | 200 | 26.1 | 10 |  |  |  |  | 
CCC(C)(C)C(=O)OCOP1(=O)OC[C@H]2O[C@@H](n3cnc4c(N)ncnc43)C(F)C2OP(=O)(OCOC(=O)C(C)(C)CC)OC[C@H]2C[C@@H](n3cnc4c(N)ncnc43)C(F)C2O1 (stereo partly drawn) [Compound 144b, {[(1R,6R,8R,9R,10R,15R,17R,18S)-8,17-bis(6-amino-9H-purin-9-yl)-3-{[(2,2-dimethylbutanoy)oxy]methoxy}-9,18-difluoro-3,12-dioxo-2,4,7,11,13-pentaoxa-3λ^5,12λ^5-diphosphatricyclo[13.3.0.0^6,10]octadecan-12-yl]oxy}methyl 2,2-dimethylbutanoate] |  | 1 |  |  |  |  | 0.04 | 0.05 | 0.02
CC1(C(=O)OCOP2(=O)OC[C@H]3O[C@@H](n4cnc5c(N)ncnc54)C(F)C3OP(=O)(OCOC(=O)C3(C)CCCCC3)OC[C@H]3C[C@@H](n4cnc5c(N)ncnc54)C(F)C3O2)CCCCC1 (some centres unmarked) [Compound 145c] |  | 6 |  |  |  |  | 0.04 | 0.01 | 0.02
